# Where two headings read alike, the source gives them in different places.
# System: 407 cancer cell lines
# Assay: Cell viability of cancer cell lines (IC50), CellTiter-Glo Viability Assay, 96 h
# Format: cell-based
# Details: for IC50: read-out: Absolute IC50
# Experimental: Viability was determined by using the 50% inhibitory concentration (IC50) as determined with the CellTiter-Glo® Viability Assay (Promega).
# Experiments were initiated by first thawing and equilibrating the CellTiter-Glo® Buffer to room temperature. The lyophilized CellTiter-Glo® Substrate was also equilibrated to room temperature. The lyophilized substrate was reconstituted with the CellTiter-Glo® buffer to form the CellTiter-Glo® Reagent.
# Cells were harvested during the logarithmic growth period, counted, and the cell concentration adjusted to 4.44×10^4 cells/mL using culture medium.
# Cells were allowed to grow overnight and the following day, the TO reading was obtained by adding 10 μL culture medium to each well of Plate A. The plate was allowed to equilibrate at room temperature for thirty minutes, after which 50 μL CellTiter-Glo® reagent was added to each well. The contents were mixed for 5 min on an orbital shaker to induce cell lysis. Plates were incubated for 20 minutes to stabilize the luminescent signal and the TO luminescence recorded.
# Test plate B was incubated for 96 h in the humidified incubator at 37° C. with 5% CO2.
# Following the incubation, the plate was equilibrated at room temperature for thirty minutes. CellTiter-Glo® (50 μL) was added to each well of the plate and contents mixed for five minutes on an orbital shaker to induce cell lysis. The luminescent signal was allowed to stabilize at room temperature for 20 minutes and the luminescence recorded.
# IC50 (EC50) was calculated using a dose-response curve, fitted using a nonlinear regression model with a sigmoidal dose response. Survival rate was calculated using the formula:
# The Surviving rate (%)=(LumTest article−LumMedium control)/(LumNon-treated−LumMedium control)×100%.
# Absolute IC50 (EC50) was calculated according to the dose-response curve generated by the statistical software (GraphPad Prism 5.0).
compound,measurement,setting,value
"N.N.[Cl][Pt][Cl] [Cisplatin, reference compound]",IC50,"MV-4-11 cells, 96 h",0.41 µM
same,IC50,MX-1,2.39 µM
same,IC50,Molt-4,0.7 µM
same,IC50,MsTo 211H,2.5 µM
same,IC50,NAMALWA CSN/70,0.28 µM
same,IC50,"NAMALWA cells, 96 h",0.63 µM
same,IC50,"NB4 cells, 96 h",0.84 µM
same,IC50,"NCI-H23 cells, 96 h",0.75 µM
same,IC50,"NCI-H69 cells, 96 h",3.28 µM
same,IC50,"NCI-H82, 96 h",1.83 µM
same,IC50,"NCI-H146 cells, 96 h",1.81 µM
same,IC50,NCI-H187,0.68 µM
same,IC50,"NCI-H209 cells, 96 h",0.44 µM
same,IC50,NCI-H226,3.56 µM
same,IC50,"NCI-H292 cells, 96 h",2.25 µM
same,IC50,"NCI-H322 cells, 96 h",10.8 µM
same,IC50,"NCI-H358 cells, 96 h",6.07 µM
same,% inhibition at top conc.,"NCI-H441 cells, 96 h",74.99%
same,IC50,"NCI-H441 cells, 96 h",6.18 µM
same,IC50,"NCI-H446 cells, 96 h",1.93 µM
same,IC50,"NCI-H460 cells, 96 h",2.77 µM
same,IC50,"NCI-H508 cells, 96 h",8.02 µM
same,IC50,"NCI-H520 cells, 96 h",10.7 µM
same,IC50,"NCI-H522 cells, 96 h",4.49 µM
same,IC50,"NCI-H526 cells, 96 h",0.33 µM
same,IC50,NCI-H596,2.06 µM
same,IC50,"NCI-H661 cells, 96 h",6.42 µM
same,IC50,"NCI-H716 cells, 96 h",8.99 µM
same,IC50,"NCI-H727 cells, 96 h",13.2 µM
same,IC50,"NCI-H747 cells, 96 h",7.3 µM
same,IC50,"NCI-H820 cells, 96 h",0.79 µM
same,IC50,NCI-H929,3.07 µM
same,IC50,"NCI-H1048 cells, 96 h",1.37 µM
same,IC50,"NCI-H1155 cells, 96 h",2.15 µM
same,IC50,"NCI-H1299 cells, 96 h",2.67 µM
same,IC50,NCI-H1373,1.45 µM
same,IC50,NCI-H1395,2.91 µM
same,IC50,NCI-H1435,14.8 µM
same,IC50,"NCI-H1437 cells, 96 h",5.67 µM
same,IC50,NCI-H1563,16.9 µM
same,IC50,"NCI-H1568 cells, 96 h",0.95 µM
same,IC50,"NCI-H1573 cells, 96 h",10.6 µM
same,IC50,"NCI-H1581 cells, 96 h",2.98 µM
same,IC50,"NCI-H1648 cells, 96 h",8.25 µM
same,IC50,NCI-H1650,5.12 µM
same,IC50,"NCI-H1651 cells, 96 h",0.62 µM
same,IC50,"NCI-H1666 cells, 96 h",6.16 µM
same,IC50,NCI-H1688,13.8 µM
same,IC50,"NCI-H1703 cells, 96 h",6.11 µM
same,IC50,"NCI-H1781 cells, 96 h",0.64 µM
same,IC50,"NCI-H1838 cells, 96 h",6.41 µM
same,IC50,"NCI-H1915 cells, 96 h",5.23 µM
same,IC50,"NCI-H1975 cells, 96 h",3.24 µM
same,IC50,"NCI-H1993 cells, 96 h",10.4 µM
same,IC50,NCI-H2009,16.7 µM
same,IC50,NCI-H2052,5.77 µM
same,IC50,"NCI-H2087 cells, 96 h",1.01 µM
same,IC50,"NCI-H2122 cells, 96 h",8.93 µM
same,IC50,"NCI-H2170 cells, 96 h",1.02 µM
same,IC50,"NCI-H2228 cells, 96 h",4.6 µM
same,% inhibition at top conc.,NCI-H2452,80.91%
same,IC50,NCI-H2452,35.5 µM
same,IC50,"NCI-H3122 cells, 96 h",5.73 µM
same,IC50,"NCI-N87, 96 h",0.95 µM
same,IC50,NK-92MI,1.2 µM
same,IC50,NOZ,1.19 µM
same,IC50,"NUGC-3 cells, 96 h",0.25 µM
same,IC50,"NUGC-4 cells, 96 h",3.65 µM
same,IC50,OCI-AML3,2.34 µM
same,IC50,"OCI-LY7 cells, 96 h",1.81 µM
same,IC50,OCUG-1,16.3 µM
same,IC50,"OCUM-1 cells, 96 h",9.94 µM
same,IC50,"OCUM-2D cells, 96 h",2.59 µM
same,IC50,"OCUM-2M cells, 96 h",3.62 µM
same,% inhibition at top conc.,"OE19, 96 h",81.07%
same,IC50,"OE19, 96 h",19.4 µM
same,IC50,OPM2,0.79 µM
same,IC50,OS-RC-2,3.5 µM
same,IC50,"OSC-19 cells, 96 h",8.56 µM
same,IC50,"OVCAR-3 cells, 96 h",5.11 µM
same,IC50,"OVCAR-8 cells, 96 h",3.13 µM
same,IC50,OZ,15 µM
same,IC50,PANC-1,4.61 µM
same,IC50,PC-3,4.66 µM
same,IC50,"PC-9 cells, 96 h",1.97 µM
same,IC50,PEER,2.04 µM
same,IC50,PL45,1.76 µM
same,IC50,PLC/PRF/5,8.47 µM
same,IC50,"Pfeiffer cells, 96 h",1.99 µM
same,IC50,"RBE cells, 96 h",4.14 µM
same,IC50,RD-ES,0.8 µM
same,IC50,RKO,3.08 µM
same,IC50,"RPMI 8226 cells, 96 h",4.04 µM
same,IC50,"RPMI-2650 cells, 96 h",1.89 µM
same,IC50,RS4;11,0.33 µM
same,IC50,"RT4 cells, 96 h",4.2 µM
same,IC50,RT112/84,0.93 µM
